ChEMBL document CHEMBL3045684, “Compatibility of traditional and novel acaricides with bumblebees (Bombus terrestris): a first laboratory assessment of toxicity and sublethal effects” (Pest Manag Sci, 2010)
Active and inactive are the calls of the source. The rule behind the calls is not given here.

Assays:
[1] = test system: Bombus terrestris; test: Toxicity against worker Bombus terrestris (bumblebee) assessed as mortality at 125 mg a.i./l, po administered through pollen for 11 weeks measured everyday for 3 days followed by once a week for 11 weeks; format: functional, organism-based
[2] = test system: Bombus terrestris; test: Toxicity against worker Bombus terrestris (bumblebee) assessed as mortality at 125 mg a.i./l, po administered through sugar water for 11 weeks measured everyday for 3 days followed by once a week for 11 weeks; format: functional
[3] = test system: Bombus terrestris; test: Contact toxicity against worker Bombus terrestris (bumblebee) assessed as mortality at 125 mg a.i./l applied on the dorsal thorax for 11 weeks measured everyday for 3 days followed by once a week for 11 weeks; format: functional
[4] = test system: Bombus terrestris; test: Toxicity against worker Bombus terrestris (bumblebee) assessed as reduction in reproduction at 125 mg a.i./l, po administered through sugar water for 11 weeks measured once a week for 11 weeks relative to control; format: functional, organism-based
[5] = test system: Bombus terrestris; test: Toxicity against worker Bombus terrestris (bumblebee) assessed as reduction in reproduction at 125 mg a.i./l, po administered through pollen for 11 weeks measured once a week for 11 weeks; format: functional, organism-based
[6] = test system: Bombus terrestris; test: Contact toxicity against worker Bombus terrestris (bumblebee) assessed as reduction in reproduction at 125 mg a.i./l applied on the dorsal thorax for 11 weeks measured once a week for 11 weeks relative to control; format: functional, organism-based
[7] = test system: Bombus terrestris; test: Toxicity against worker Bombus terrestris (bumblebee) assessed as mortality at 400 mg a.i./l, po administered through sugar water measured up to 1 week; format: functional, organism-based
[8] = test system: Bombus terrestris; test: Toxicity against worker Bombus terrestris (bumblebee) assessed as mortality at 400 mg a.i./l, po administered through sugar water for 11 weeks measured everyday for 3 days followed by once a week for 11 weeks; format: functional
[9] = test system: Bombus terrestris; test: Toxicity against worker Bombus terrestris (bumblebee) assessed as mortality at 400 mg a.i./l, po administered through pollen for 11 weeks measured everyday for 3 days followed by once a week for 11 weeks; format: functional
[10] = test system: Bombus terrestris; test: Contact toxicity against worker Bombus terrestris (bumblebee) assessed as mortality at 400 mg a.i./l applied on the dorsal thorax for 11 weeks measured everyday for 3 days followed by once a week for 11 weeks; format: functional
[11] = test system: Bombus terrestris; test: Toxicity against worker Bombus terrestris (bumblebee) assessed as reduction in reproduction at 400 mg a.i./l, po administered through pollen for 11 weeks measured once a week for 11 weeks; format: functional; design: scale not given: the % may be the effect or the level left
[12] = test system: Bombus terrestris; test: Toxicity against worker Bombus terrestris (bumblebee) assessed as reduction in reproduction at 400 mg a.i./l, po administered through sugar water for 11 weeks measured once a week for 11 weeks relative to control; format: functional, organism-based
[13] = test system: Bombus terrestris; test: Contact toxicity against worker Bombus terrestris (bumblebee) assessed as reduction in reproduction at 400 mg a.i./l applied on the dorsal thorax for 11 weeks measured once a week for 11 weeks relative to control; format: functional, organism-based
[14] = test system: Bombus terrestris; test: Toxicity against worker Bombus terrestris (bumblebee) assessed as mortality at 50 mg a.i./l, po administered through sugar water measured after 4 to 6 weeks; format: functional, organism-based
[15] = test system: Bombus terrestris; test: Toxicity against worker Bombus terrestris (bumblebee) assessed as mortality at 50 mg a.i./l, po administered through sugar water for 11 weeks measured everyday for 3 days followed by once a week for 11 weeks; format: functional
[16] = test system: Bombus terrestris; test: Contact toxicity against worker Bombus terrestris (bumblebee) assessed as mortality at 50 mg a.i./l applied on the dorsal thorax for 11 weeks measured everyday for 3 days followed by once a week for 11 weeks; format: functional
[17] = test system: Apis mellifera; test: Toxicity against Apis mellifera (honey bee) assessed as adverse efffect at 250 mg/l; format: functional, organism-based
[18] = n-octanol-water distribution coefficient, log KOW of the compound; format: physicochemical; conditions: read-out: log KOW
[19] = test system: Bombus terrestris; test: Toxicity against worker Bombus terrestris (bumblebee) assessed as reduction in reproduction at 50 mg a.i./l, po administered through pollen for 11 weeks measured once a week for 11 weeks; format: functional; design: scale not given: the % may be the effect or the level left
[20] = test system: Bombus terrestris; test: Toxicity against worker Bombus terrestris (bumblebee) assessed as mortality at 50 mg a.i./l, po administered through pollen for 11 weeks measured everyday for 3 days followed by once a week for 11 weeks; format: functional, organism-based
[21] = test system: Bombus terrestris; test: Contact toxicity against worker Bombus terrestris (bumblebee) assessed as reduction in reproduction at 50 mg a.i./l applied on the dorsal thorax for 11 weeks measured once a week for 11 weeks relative to control; format: functional, organism-based
[22] = test system: Bombus terrestris; test: Toxicity against worker Bombus terrestris (bumblebee) assessed as reduction in reproduction at 50 mg a.i./l, po administered through sugar water for 11 weeks measured once a week for 11 weeks relative to control; format: functional; design: scale not given: the % may be the effect or the level left
[23] = test system: Bombus terrestris; test: Toxicity against worker Bombus terrestris (bumblebee) assessed as mortality at 240 mg a.i./l, po administered through pollen for 11 weeks measured everyday for 3 days followed by once a week for 11 weeks; format: functional
[24] = test system: Bombus terrestris; test: Toxicity against worker Bombus terrestris (bumblebee) assessed as mortality at 240 mg a.i./l, po administered through sugar water measured up to 1 week; format: functional, organism-based
[25] = test system: Bombus terrestris; test: Toxicity against worker Bombus terrestris (bumblebee) assessed as mortality at 240 mg a.i./l, po administered through sugar water for 11 weeks measured everyday for 3 days followed by once a week for 11 weeks; format: functional
[26] = test system: Bombus terrestris; test: Contact toxicity against worker Bombus terrestris (bumblebee) assessed as mortality at 240 mg a.i./l applied on the dorsal thorax for 11 weeks measured everyday for 3 days followed by once a week for 11 weeks; format: functional
[27] = test system: Apis mellifera; test: Toxicity against Apis mellifera (honey bee) assessed per bee; format: functional
[28] = test system: Bombus terrestris; test: Contact toxicity against Bombus terrestris (bumblebee) assessed per bee; format: functional
[29] = test system: Apis mellifera; test: Contact toxicity against Apis mellifera (honey bee) assessed per bee; format: functional
[30] = test system: Bombus terrestris; test: Toxicity against worker Bombus terrestris (bumblebee) assessed as reduction in reproduction at 240 mg a.i./l, po administered through sugar water for 11 weeks measured once a week for 11 weeks relative to control; format: functional, organism-based
[31] = test system: Bombus terrestris; test: Toxicity against worker Bombus terrestris (bumblebee) assessed as mortality at 240 mg a.i./l, po administered through pollen measured after 8 weeks; format: functional; conditions: 1344 h
[32] = test system: Bombus terrestris; test: Toxicity against worker Bombus terrestris (bumblebee) assessed as reduction in reproduction at 240 mg a.i./l, po administered through pollen for 11 weeks measured once a week for 11 weeks; format: functional, organism-based
[33] = test system: Bombus terrestris; test: Contact toxicity against worker Bombus terrestris (bumblebee) assessed as reduction in reproduction at 240 mg a.i./l applied on the dorsal thorax for 11 weeks measured once a week for 11 weeks relative to control; format: functional, organism-based
[34] = test system: Bombus terrestris; test: Toxicity against worker Bombus terrestris (bumblebee) assessed as mortality at 240 mg a.i./l, po administered through pollen measured after 5 weeks; format: functional; conditions: 840 h

## O=C(NC(=O)c1c(F)cccc1F)Nc1ccc(CO/N=C(/c2ccc(Cl)cc2)C2CC2)cc1 [FLUCYCLOXURON]
[1]
  Activity: inactive
[2]
  mortality at 125 µg/mL: 25%
[3]
  mortality at 125 µg/mL: < 25%
[4]
  Activity: inactive
[5]
  Activity: Active
[6]
  Activity: Active

## Cc1ccc(/N=C/N(C)/C=N/c2ccc(C)cc2C)c(C)c1 [AMITRAZ]
[7]
  Activity: Active
[8]
  mortality at 400 µg/mL: 95%
[9]
  mortality at 400 µg/mL: 90%
[10]
  mortality at 400 µg/mL: < 25%
[11]
  Activity: 50%
[12]
  Activity: Active
[13]
  Activity: inactive

## Cc1nn(C)c(Oc2ccccc2)c1/C=N/OCc1ccc(C(=O)OC(C)(C)C)cc1 [FENPYROXYMATE]
[14]
  Activity: Active
[15]
  mortality at 50 µg/mL: 95%
[16]
  mortality at 50 µg/mL: < 25%
[17]
  Activity: inactive
[18]
  logP: 5.01
[19]
  Activity: 50%
[20]
  Activity: inactive
[21]
  Activity: inactive
[22]
  Activity: 90%

## CCOCn1c(-c2ccc(Cl)cc2)c(C#N)c(Br)c1C(F)(F)F [CHLORFENAPYR]
[23]
  mortality at 240 µg/mL: 90%
[24]
  Activity: Active
[25]
  mortality at 240 µg/mL: 95%
[26]
  mortality at 240 µg/mL: < 25%
[27]
  LD50: 0.2 µg
[28]
  LD50: >100 µg
[29]
  LD50: <1 µg
[30]
  Activity: Active
[31]
  mortality at 240 µg/mL: 90%
[32]
  Activity: Active
[33]
  Activity: inactive
[34]
  mortality at 240 µg/mL: 50%
